# Test results from paper PMC11249626, “Fluorophore-Labeled Pyrrolones Targeting the Intracellular Allosteric Binding Site of the Chemokine Receptor CCR1” (ACS Pharmacology & Translational Science, 2024).
# Read-outs that look alike come from different tables or passages of the source.
# Target: T1, CCR1 (Homo sapiens, UniProt P32246)
# T1 sequence (P32246 1-355): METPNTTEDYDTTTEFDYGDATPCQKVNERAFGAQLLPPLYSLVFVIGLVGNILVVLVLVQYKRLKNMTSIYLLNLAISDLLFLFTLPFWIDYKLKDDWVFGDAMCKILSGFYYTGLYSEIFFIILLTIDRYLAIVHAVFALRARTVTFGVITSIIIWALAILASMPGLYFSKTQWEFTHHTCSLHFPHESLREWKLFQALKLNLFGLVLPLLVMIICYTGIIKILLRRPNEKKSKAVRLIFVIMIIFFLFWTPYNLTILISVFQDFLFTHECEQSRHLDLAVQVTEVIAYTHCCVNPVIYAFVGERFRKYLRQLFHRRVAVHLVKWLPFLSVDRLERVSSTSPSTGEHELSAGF
# Test: Membrane-based NanoBRET association and dissociation kinetic assays with 12
# Format: binding
# Design: Promega pNLF1-C (Nluc) #CCR010TN00; host or cells: HEK293T, transient (PEI)
# Method: Membrane-based NanoBRET association kinetic assay: 5 µL of a solution of the fluorescent ligand (12) diluted to varying concentrations (final assay concentrations: 1–3 µM) in assay buffer and 5 µL of assay buffer were transferred to a 384-well plate. For the determination of non-specific binding, we added a solution of a non-labeled competitor dissolved in assay buffer (5, final assay concentration: 10 µM) instead. After the addition of 5 µL of a furimazine solution (final assay dilution:
# 1:630 in assay buffer), plates were incubated for 3 minutes in the dark at ambient temperature. Subsequently, 20 µL of the membrane preparation (3 µg total protein/well) were added (final assay volume: 35 µL). BRET ratios were measured with a CLARIOstar microplate reader using 620/10 nm and 475/30 nm emission filters over time at ambient temperature.
# The obtained data were analyzed using the association kinetics (one ligand concentration) algorithm in PRISM10.2.1 (GraphPad, USA) to determine association kinetics using a pre-determined koff as a constraint.
# Membrane-based NanoBRET dissociation kinetic assay: 5 µL of a solution of the fluorescent ligand (12) diluted to varying concentrations (final assay concentrations: 0.25–3 µM) in assay buffer and 5 µL of assay buffer were transferred to a 384-well plate. In order to determine non-specific binding, we added a solution of a non-labeled competitor dissolved in assay buffer (5, final assay concentration: 10 µM) instead of the 5 µL of assay buffer. Then, 20 µL of the membrane preparation (3 µg total protein/well) were added, and plates were incubated for 1 h at ambient temperature in the dark.
# Subsequently, 5 µL of a furimazine solution (final assay dilution: 1:630 in assay buffer) were added. Plates were incubated for further 5 minutes in the dark at ambient temperature. Thereafter, 1 µL of a solution of a […] competitor dissolved in assay buffer (5, final assay concentration: 10 µM) was added. For control experiments, we added 1 µL of assay buffer instead of the competitor solution. BRET ratios were measured with a CLARIOstar microplate reader using 620/10 nm and 475/30 nm emission filters over time at ambient temperature. Specific BRET ratios were calculated as a difference of total and non -specific binding. […]
# mM HEPES, no phenol red supplemented with 5% FBS) was added and cells were incubated at 37 °C for 30 minutes.
# Then, 5 µL of a solution containing the fluorescent ligand ( 12), diluted in assay medium at varying concentrations, were added in case of saturation binding experiments. To determine non-specific binding, 5 µL of a solution of 5 dissolved in assay medium (final assay concentration: 10 µM) were added. For competition binding experiments, 5 µL of a solution of the fluorescent ligand (12) diluted in assay medium (final assay concentration: 1 µM) and 5 µL of a solution of the potential competitor (diluted from 10 mM DMSO-stock solutions with assay medium) at varying concentrations were added to the corresponding wells. After 90 min of incubation at 37 °C, 5 µL of a furimazine solution (final assay dilution: 1:2500, diluted with assay medium) were added. After a further incubation of 5 min in the dark at 37 °C, BRET ratios were measured with a CLARIOstar microplate reader using 620/10 nm and 475/30 nm emission filters. Total, non-specific and specific binding, which was calculated as a difference of total and non-specific binding, were analyzed using the algorithms for one-site saturation binding in PRISM10.2.1 (GraphPad, USA). To determine the inhibition constants (Ki) of the potential competitors, data were normalized to total and non-specific binding and analyzed using the one site-fit Ki equation in PRISM10.2.1 (GraphPad, USA).
# Kinetic solubility assay: Kinetic solubility was assessed in saline phosphate buffer pH 7.25 (1.19 g Na2HPO4·12 H2O, 0.095 g KH2PO4 and 4.0 g NaCl in 0.5 L double distilled water). The pH was adjusted to 7.25 with concentrated […]
# hydrochloric acid. […]
smiles,measurement,setting,value
CN(C)c1ccc2c(-c3cc(C(=O)NCCOCCOCc4cn(CCCC(=O)C5=C(O)C(=O)N(c6ccc(Br)cc6F)C5C5CCCCC5)nn4)ccc3C(=O)[O-])c3ccc(=[N+](C)C)cc-3oc2c1 (stereo not drawn) [compound 12],Kd,"CCR1_Nluc membranes, from kon and koff, read-out: kinetic KD value KD(kin.)",0.317 ± 0.032 µM
same,koff,"CCR1_Nluc membranes, read-out: koff (converted)",0.00233 s⁻¹
same,kon,"CCR1_Nluc membranes, read-out: kon (converted)",7350 M⁻¹ s⁻¹
same,residence time,"CCR1_Nluc membranes, read-out: residence time tr",7.31 ± 0.22 min
same,kon,"association at room temperature (membranes), read-out: kon, mean (Table S1) (converted)",7360 M⁻¹ s⁻¹
same,"tR, mean (Table S1)",dissociation at room temperature (membranes),7.31 min
same,"koff, single experiments (Table S1)","dissociation at room temperature (membranes), 12 at 250-3000 nM",0.001978 s⁻¹
same,koff,"dissociation at room temperature (membranes), 12 at 250-3000 nM, read-out: koff, single experiments (Table S1) (converted)",0.00172 s⁻¹
same,koff,"dissociation at room temperature (membranes), read-out: koff, mean (Table S1) (converted)",0.00233 s⁻¹
